Reference: patent US9204653B2, “5-fluoro pyrimidine derivatives” (DOW AGROSCIENCES LLC, priority 2008, dated 2015)
Like-named read-outs stand apart in the source and are kept apart here.

Test system: Mycosphaerella graminicola; Anamorph: Septoria tritici; Bayer Code SEPTTR
Test: Leaf blotch of wheat, foliar fungicide treatment, one day protectant (1DP) or three day curative (3DC)
Format: in vivo, Septoria tritici on wheat plants (variety Yuma)
Settings: Zymoseptoria tritici; for pest or weed control at 50 ppm / pest or weed control at 200 ppm: % disease control rating
[1] = 24 h, one day protectant (1DP), 25 ppm (first 1DP column), percent control rating, read-out: SETTTR 1DP 25 ppm
[2] = 24 h, one day protectant (1DP), 25 ppm as printed (second 1DP column), percent control rating, read-out: SETTTR 1DP 25 ppm
[3] = 72 h, three day curative (3DC), 25 ppm, percent control rating, read-out: SEPTTR 3DC 25 ppm
[4] = 72 h, three day curative (3DC), percent control rating, read-out: SEPTTR 3DC 100 ppm
[5] = 24 h, one day protectant (1DP), 25 ppm, percent disease control rating, read-out: SETTTR 1DP 25 ppm
[6] = 24 h, one day protectant (1DP), percent disease control rating, read-out: SEPTTR 1DP 100 ppm
[7] = 72 h, three day curative (3DC), 25 ppm, percent disease control rating, read-out: SEPTTR 3DC 25 ppm
[8] = 72 h, three day curative (3DC), percent disease control rating, read-out: SEPTTR 3DC 100 ppm
[9] = 24 h, one day protectant (1DP), 25 ppm, rating of percent disease control, read-out: SETTTR 1DP 25 ppm
[10] = 24 h, one day protectant (1DP), rating of percent disease control, read-out: SEPTTR 1DP 100 ppm
[11] = 72 h, three day curative (3DC), 25 ppm, rating of percent disease control, read-out: SEPTTR 3DC 25 ppm
[12] = 72 h, three day curative (3DC), rating of percent disease control, read-out: SEPTTR 3DC 100 ppm

Work on Fc1ccc(COc2ncc(F)c(NNc3ccccc3F)n2)cc1 [Compound 1042] yielded a pest or weed control at 25 ppm [1] of 0 to 25%, a pest or weed control at 25 ppm [2] of 0 to 25% and a pest or weed control at 25 ppm [3] of 0 to 25%. The pest or weed control at 100 ppm [4] was 26 to 50%.
In the case of CCC(/C=N/Nc1nc(OCc2cccc(OC)c2)ncc1F)CC [Compound 97], the pest or weed control at 25 ppm [5] is reported as 0 to 25%, the pest or weed control at 100 ppm [6] is reported as 51 to 75% and the pest or weed control at 25 ppm [7] is reported as 0 to 25%. The pest or weed control at 100 ppm [8] was 0 to 25%.
Work on Nc1nc(OCc2ccc(F)cc2F)ncc1F [Compound 289] yielded a pest or weed control at 25 ppm [9] of 76 to 100%, a pest or weed control at 100 ppm [10] of 76 to 100% and a pest or weed control at 25 ppm [11] of 76 to 100%. It also gave a pest or weed control at 100 ppm [12] of 76 to 100%.
In the case of Nc1nc(SCc2ccc(F)cc2)ncc1F [Compound 100], the pest or weed control at 25 ppm [5] is reported as 0 to 25%, the pest or weed control at 100 ppm [6] is reported as 0 to 25% and the pest or weed control at 25 ppm [7] is reported as 0 to 25%. The pest or weed control at 100 ppm [8] was 0 to 25%.
Work on O=C(NCc1ccccc1F)Nc1nc(OCc2cccc(F)c2)ncc1F [Compound 98] yielded a pest or weed control at 25 ppm [5] of 0 to 25%, a pest or weed control at 100 ppm [6] of 0 to 25% and a pest or weed control at 25 ppm [7] of 0 to 25%. The pest or weed control at 100 ppm [8] was 0 to 25%.
With Cc1ccc(COc2ncc(F)c(NC(=O)NCc3ccccc3F)n2)cc1 [Compound 398] the pest or weed control at 25 ppm [9] was 0 to 25%, the pest or weed control at 100 ppm [10] was 0 to 25% and the pest or weed control at 25 ppm [11] was 0 to 25%. For the same molecule, the pest or weed control at 100 ppm [12] was 26 to 50%.
Molecule Nc1nc(OCc2cccc(C(F)(F)F)c2F)ncc1F [Compound 144] has a pest or weed control at 25 ppm [5] of 76 to 100%, a pest or weed control at 100 ppm [6] of 76 to 100% and a pest or weed control at 25 ppm [7] of 76 to 100%. For the same molecule, the pest or weed control at 100 ppm [8] was 76 to 100%.
Nc1nc(OCc2ccsc2)ncc1F [Compound 508] showed a pest or weed control at 25 ppm [9] of 76 to 100%, a pest or weed control at 100 ppm [10] of 76 to 100% and a pest or weed control at 25 ppm [11] of 76 to 100%. It also gave a pest or weed control at 100 ppm [12] of 76 to 100%.
COc1ccc(COc2ncc(F)c(NCc3ccc(Cl)cc3)n2)cc1 [Compound 929] gave a pest or weed control at 50 ppm (24 h, one day protectant) of 51 to 75% and a pest or weed control at 200 ppm (24 h, one day protectant) of 76 to 100%.
In the case of N#Cc1cccc(COc2ncc(F)c(NC(=O)Nc3ccccc3F)n2)c1 [Compound 142], the pest or weed control at 25 ppm [5] is reported as 0 to 25%, the pest or weed control at 100 ppm [6] is reported as 0 to 25% and the pest or weed control at 25 ppm [7] is reported as 0 to 25%. For the same molecule, the pest or weed control at 100 ppm [8] was 0 to 25%.
For CC(C)NC(=O)Nc1nc(OCc2cccc(C#N)c2)ncc1F [Compound 548], the pest or weed control at 25 ppm [9] was 0 to 25%, the pest or weed control at 100 ppm [10] was 0 to 25% and the pest or weed control at 25 ppm [11] was 0 to 25%. The pest or weed control at 100 ppm [12] was 0 to 25%.
With COc1cc(F)cc(F)c1COc1ncc(F)c(N)n1 [Compound 787] the pest or weed control at 25 ppm [9] was 76 to 100%, the pest or weed control at 100 ppm [10] was 76 to 100% and the pest or weed control at 25 ppm [11] was 76 to 100%. The pest or weed control at 100 ppm [12] was 76 to 100%.
Fc1ccc(COc2ncc(F)c(-n3ccnc3)n2)cc1 [Compound 688] gave a pest or weed control at 25 ppm (24 h, one day protectant, 25 ppm, rating of percent disease control, read-out: SETTTR 1DP 25 ppm) of 76 to 100%, a pest or weed control at 100 ppm (24 h, one day protectant, rating of percent disease control, read-out: SEPTTR 1DP 100 ppm) of 76 to 100% and a pest or weed control at 25 ppm (72 h, three day curative, 25 ppm, rating of percent disease control, read-out: SEPTTR 3DC 25 ppm) of 76 to 100%. For the same molecule, the pest or weed control at 100 ppm (72 h, three day curative, rating of percent disease control, read-out: SEPTTR 3DC 100 ppm) was 76 to 100%.
Work on Fc1cnc(OCCc2ccccc2)nc1NCc1ccc(Cl)cc1 [Compound 911] yielded a pest or weed control at 50 ppm (24 h, one day protectant) of 0 to 25% and a pest or weed control at 200 ppm (24 h, one day protectant) of 0 to 25%.
For COCCCOc1ncc(F)c(NC(C)=O)n1 [Compound 321], the pest or weed control at 25 ppm [9] was 76 to 100%, the pest or weed control at 100 ppm [10] was 76 to 100% and the pest or weed control at 25 ppm [11] was 76 to 100%. For the same molecule, the pest or weed control at 100 ppm [12] was 76 to 100%.
CCOCNc1nc(O)ncc1F [Compound 1115] gave a pest or weed control at 25 ppm [1] of 26 to 50%, a pest or weed control at 25 ppm [2] of 76 to 100% and a pest or weed control at 25 ppm [3] of 26 to 50%. For the same molecule, the pest or weed control at 100 ppm [4] was 76 to 100%.
COc1ccccc1COc1ncc(F)c(/N=C/N2CCOCC2)n1 [Compound 541] was tested, and the pest or weed control at 25 ppm [9] was 76 to 100%, the pest or weed control at 100 ppm [10] was 76 to 100% and the pest or weed control at 25 ppm [11] was 76 to 100%. It also gave a pest or weed control at 100 ppm [12] of 76 to 100%.
In the case of COc1ncc(F)c(NOCCOc2ccccc2)n1 [Compound 1081], the pest or weed control at 25 ppm [1] is reported as 0 to 25%, the pest or weed control at 25 ppm [2] is reported as 0 to 25% and the pest or weed control at 25 ppm [3] is reported as 0 to 25%. For the same molecule, the pest or weed control at 100 ppm [4] was 0 to 25%.
COc1ncc(F)c(N/N=C/C2CC2)n1 [Compound 1022] gave a pest or weed control at 25 ppm [1] of 0 to 25%, a pest or weed control at 25 ppm [2] of 0 to 25% and a pest or weed control at 25 ppm [3] of 0 to 25%. For the same molecule, the pest or weed control at 100 ppm [4] was 26 to 50%.
Work on COc1ccccc1NC(=O)Nc1nc(O)ncc1F [Compound 954, 1-(5-Fluoro-2-hydroxypyrimidin-4-yl)-3-(2-methoxyphenyl)urea] yielded a pest or weed control at 25 ppm [1] of 26 to 50%, a pest or weed control at 25 ppm [2] of 26 to 50% and a pest or weed control at 25 ppm [3] of 26 to 50%. The pest or weed control at 100 ppm [4] was 51 to 75%.
